Values quoted from earlier work, collected in patent US20190134140A1, “ORALLY ADMINISTERED COMPOSITION FOR TREATING CYSTIC FIBROSIS, COPD, ASTHMA AND OTHER INFLAMMATORY CONDITIONS” (priority 2017, published 2019).
Read-outs that look alike come from different tables or passages of the source.

Experiments:
dF508 = dF508 (Homo sapiens, UniProt P13569, DEL508-508)
Chain of dF508 (P13569 with tags, fused parts or gaps DEL508-508): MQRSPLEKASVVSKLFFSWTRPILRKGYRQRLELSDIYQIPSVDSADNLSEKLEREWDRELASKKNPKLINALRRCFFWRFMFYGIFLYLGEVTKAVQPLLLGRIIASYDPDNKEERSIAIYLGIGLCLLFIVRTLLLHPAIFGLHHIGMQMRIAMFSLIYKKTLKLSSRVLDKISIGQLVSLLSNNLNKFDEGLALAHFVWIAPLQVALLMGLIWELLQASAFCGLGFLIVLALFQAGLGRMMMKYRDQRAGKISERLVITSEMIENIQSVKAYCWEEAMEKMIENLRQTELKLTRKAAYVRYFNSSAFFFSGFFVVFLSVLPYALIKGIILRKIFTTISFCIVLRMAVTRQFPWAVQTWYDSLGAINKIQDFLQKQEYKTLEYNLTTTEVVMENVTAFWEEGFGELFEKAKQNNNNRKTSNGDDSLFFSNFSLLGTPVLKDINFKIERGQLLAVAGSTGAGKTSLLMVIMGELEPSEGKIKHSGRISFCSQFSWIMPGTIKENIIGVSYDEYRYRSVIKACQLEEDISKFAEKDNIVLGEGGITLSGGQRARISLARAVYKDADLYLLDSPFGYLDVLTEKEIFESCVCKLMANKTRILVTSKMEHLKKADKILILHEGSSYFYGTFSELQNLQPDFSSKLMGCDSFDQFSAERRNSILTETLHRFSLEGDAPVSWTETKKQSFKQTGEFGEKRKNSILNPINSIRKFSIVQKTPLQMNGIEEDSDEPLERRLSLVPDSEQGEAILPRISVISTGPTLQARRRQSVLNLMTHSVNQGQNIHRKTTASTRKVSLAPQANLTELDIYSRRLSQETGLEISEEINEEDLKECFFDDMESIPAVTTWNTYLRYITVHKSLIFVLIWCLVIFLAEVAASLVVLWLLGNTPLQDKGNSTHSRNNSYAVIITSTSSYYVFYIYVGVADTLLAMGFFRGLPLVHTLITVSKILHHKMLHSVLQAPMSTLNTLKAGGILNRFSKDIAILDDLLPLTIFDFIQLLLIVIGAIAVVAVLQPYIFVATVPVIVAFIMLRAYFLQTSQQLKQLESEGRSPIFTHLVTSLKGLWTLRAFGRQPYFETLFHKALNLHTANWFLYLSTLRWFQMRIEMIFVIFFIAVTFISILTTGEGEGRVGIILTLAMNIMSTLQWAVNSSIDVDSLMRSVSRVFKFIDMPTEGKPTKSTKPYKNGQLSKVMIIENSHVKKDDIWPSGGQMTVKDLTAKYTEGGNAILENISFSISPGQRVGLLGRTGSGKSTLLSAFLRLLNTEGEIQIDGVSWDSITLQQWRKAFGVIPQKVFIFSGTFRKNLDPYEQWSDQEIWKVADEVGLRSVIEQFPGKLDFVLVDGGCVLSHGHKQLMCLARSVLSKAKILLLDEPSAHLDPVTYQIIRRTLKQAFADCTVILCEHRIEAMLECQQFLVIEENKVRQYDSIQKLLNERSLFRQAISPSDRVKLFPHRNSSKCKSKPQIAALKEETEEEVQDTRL

activation of dF508 (dF508)	enhancement in permeability (combined with curcumin) [%]	enhancement in permeability (combined with piperine) [%]	enhancement in permeability (combined with quercetin) [%]	SMILES	ciliary beat frequency (ciliary beat frequency)
activate dF508	–	–	–	O=c1c(O)c(-c2ccc(O)c(O)c2)oc2cc(O)cc(O)c12 [Quercetin]	increase ciliary beat frequency
–	300	350	310	Oc1ccc(C=Cc2cc(O)cc(O)c2)cc1 [Resveratrol]	–
